Paper doi:10.64898/2025.12.01.691523v1 (biorxiv, 2025)

Key:
bacterioferritin (Bftn) = details: buffer not given in main text
AcFtnHCH = AcFtnHCH (Anopheles culicifacies, UniProt A0A182M0V3); test: biochemical
Chain of AcFtnHCH (A0A182M0V3 21-216): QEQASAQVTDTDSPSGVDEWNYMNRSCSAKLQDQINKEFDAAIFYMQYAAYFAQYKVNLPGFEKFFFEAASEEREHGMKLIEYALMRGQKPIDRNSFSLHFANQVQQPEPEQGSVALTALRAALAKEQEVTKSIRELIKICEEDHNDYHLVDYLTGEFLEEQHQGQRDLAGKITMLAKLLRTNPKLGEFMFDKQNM

Compound `C=CC1=C(C)C2=Cc3c(C=C)c(C)c4[n]3[Fe]([Cl])[n]3c(c(C)c(CCC(=O)O)c3=CC3=NC(=C4)C(C)=C3CCC(=O)O)=CC1=N2` [hemin] has a Kd (bacterioferritin (Bftn)) of 136 ± 21.9 nM and a Kd (AcFtnHCH) of 67.8 ± 6.5 nM.
